Test systems include A498; A549; CCRF-CEM; DU-145; EKVX; HCC 2998; HL-60; KM12; NCI-H460; OVCAR-3; OVCAR-5; OVCAR-8; SF-539; SNB-75; SW-620; UACC-62.
What all share (assay): inhibition of tumour cell growth, NCI panel, 48 h

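In this assay, cells in 96-well plates receive the compound at five concentrations for 48 hours. Endpoints are linearly interpolated between the surrounding concentrations. At the GI50, growth is halved.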 The source made the active and inactive calls. Rule as the data show it: active = GI50 up to about 1.1 µM and inactive = higher.

`CN(CCCCN(C)CCc1ccc(Cl)c(Cl)c1)CCCCN1CCCC1`: the GI50 was 1.72 µM (inactive) in the assay on A498; 1.65 µM (inactive) in the assay on A549; < 0.0235 µM (active) in the assay on CCRF-CEM; 2.73 µM (inactive) with DU-145; 1.63 µM (inactive) in the assay with EKVX; 0.195 µM (active) in the assay with HCC 2998. For the same compound, the GI50 with HL-60 was 1.49 µM (inactive); in the assay with KM12 it was 0.705 µM (active); with NCI-H460, 1.48 µM (inactive); in the assay with OVCAR-3 it was 2.05 µM (inactive); in the assay on OVCAR-5, 2.36 µM (inactive); with OVCAR-8 it was 2.09 µM (inactive). The GI50 is 1.01 µM (active) with SF-539, 1.73 µM (inactive) in the assay with SNB-75, 1.21 µM (inactive) in the assay with SW-620 and 1.93 µM (inactive) in the assay on UACC-62.
As to `CC(C)(C)[Si](C)(C)OCC1CCC(n2cnc3c(NC(=O)c4ccccc4)ncnc32)O1` (stereo unspecified), the GI50 in the assay on A498 is 21.1 µM (inactive); in the assay on A549 it was 19 µM (inactive); with CCRF-CEM it was 22 µM (inactive); in the assay on DU-145, 19.4 µM (inactive); in the assay on EKVX, 17.6 µM (inactive); in the assay on HCC 2998 it was 19.5 µM (inactive). The GI50 in the assay with HL-60 is 18 µM (inactive); in the assay on KM12, 17.3 µM (inactive); in the assay with NCI-H460 it was 18 µM (inactive); in the assay with OVCAR-3, 14 µM (inactive); in the assay on OVCAR-5 it was 16.7 µM (inactive); in the assay on OVCAR-8, 28.5 µM (inactive). In addition, the GI50 in the assay with SF-539 was 18.3 µM (inactive); with SNB-75, 10.4 µM (inactive); in the assay with SW-620 it was 20 µM (inactive); in the assay with UACC-62, 14 µM (inactive).
As for `Cc1c(-c2ccccc2)c(-c2ccc(OCCN(C)C)cc2)n2ccccc12`, the GI50 in the assay on A498 is 14.8 µM (inactive); with A549 it was 13.9 µM (inactive); in the assay with CCRF-CEM, 3.72 µM (inactive); with DU-145, 13.3 µM (inactive); in the assay with EKVX, 15.3 µM (inactive); in the assay on HCC 2998, 1.69 µM (inactive). The GI50 was 3.67 µM (inactive) with HL-60; 3.82 µM (inactive) in the assay with KM12; 2.51 µM (inactive) with NCI-H460; 12 µM (inactive) with OVCAR-3; 15 µM (inactive) with OVCAR-5; 13.8 µM (inactive) in the assay on OVCAR-8. Further, the GI50 with SF-539 was 10.5 µM (inactive); with SNB-75, 8.38 µM (inactive); in the assay with SW-620 it was 5.5 µM (inactive); with UACC-62, 1.84 µM (inactive).
On to `COC1=C(OC)C(=O)C(Sc2ccc3ccccc3c2)=CC1=O`, for which the GI50 is 14.7 µM (inactive) with A498; 12 µM (inactive) with A549; 1.29 µM (inactive) in the assay with CCRF-CEM; 14.5 µM (inactive) in the assay with DU-145; 11.9 µM (inactive) in the assay with EKVX; 11.6 µM (inactive) in the assay on HCC 2998. The GI50 is 0.716 µM (active) in the assay on HL-60; 5.86 µM (inactive) in the assay with KM12; 7.67 µM (inactive) in the assay on NCI-H460; 4.63 µM (inactive) in the assay on OVCAR-3; 15.6 µM (inactive) with OVCAR-5; 10.4 µM (inactive) with OVCAR-8. Moreover, the GI50 is 13.5 µM (inactive) in the assay on SF-539, 12.8 µM (inactive) in the assay with SNB-75, 3.5 µM (inactive) in the assay on SW-620 and 7.64 µM (inactive) with UACC-62.
With `CC1(C=O)CCC23COC4(CCC5C6(C)CCC(OC7OCC(OC8OC(CO)C(O)C(OC9OC(CO)C(O)C(O)C9O)C8OC8OCC(O)C(O)C8O)C(O)C7OC7OC(CO)C(O)C(O)C7O)C(C)(C)C6CCC5(C)C4(C)CC2O)C3C1` (stereo unspecified), the GI50 was 0.552 µM (active) in the assay with A498; 1.63 µM (inactive) in the assay with A549; 0.221 µM (active) in the assay with CCRF-CEM; 1.46 µM (inactive) in the assay on DU-145; 1.5 µM (inactive) with EKVX; 1.01 µM (active) in the assay on HCC 2998. The GI50 was 0.356 µM (active) in the assay on HL-60; 0.0474 µM (active) with KM12; 1.29 µM (inactive) in the assay on NCI-H460; 1.47 µM (inactive) with OVCAR-3; 1.29 µM (inactive) in the assay with OVCAR-5; 0.365 µM (active) in the assay on OVCAR-8. The GI50 was 1.3 µM (inactive) with SF-539, 1.26 µM (inactive) in the assay with SNB-75, 0.628 µM (active) with SW-620 and 1.71 µM (inactive) in the assay with UACC-62.
Consider `Cc1c(-c2ccccc2)c(C#N)c2nnn(-c3ccc(Cl)cc3)c(=O)n12`, for which the GI50 is 68.7 µM (inactive) in the assay on A498; 21.5 µM (inactive) in the assay with A549; 18.3 µM (inactive) in the assay on CCRF-CEM; 38.5 µM (inactive) in the assay with DU-145; 50.9 µM (inactive) in the assay with EKVX; 10.6 µM (inactive) in the assay on HCC 2998. In addition, the GI50 with HL-60 was 4.43 µM (inactive); in the assay on KM12 it was 24.2 µM (inactive); in the assay on NCI-H460, 4.83 µM (inactive); in the assay on OVCAR-3, 16.4 µM (inactive); in the assay with OVCAR-5 it was > 100 µM (inactive); in the assay with OVCAR-8 it was 25.3 µM (inactive). The GI50 in the assay with SF-539 was 20.7 µM (inactive); in the assay with SNB-75 it was 30.9 µM (inactive); in the assay on SW-620, 25.2 µM (inactive); in the assay on UACC-62, 0.869 µM (active).
Take `C/N=C/N(C)c1c2ccccc2nc2ccccc12`: the GI50 with A498, in the assay on A549, in the assay with CCRF-CEM, with DU-145, in the assay with EKVX and with HCC 2998 was > 100 µM (inactive) throughout. The GI50 with HL-60, in the assay with KM12, in the assay with NCI-H460, with OVCAR-3, with OVCAR-5 and with OVCAR-8 was > 100 µM (inactive) each time. Moreover, the GI50 with SF-539 was > 100 µM (inactive); in the assay on SNB-75, 90.6 µM (inactive); in the assay with SW-620, > 100 µM (inactive); with UACC-62, > 100 µM (inactive).
Consider `CCOC1CN=C(Nc2cccc3ccccc23)S1` (stereo unspecified), for which the GI50 with A498, in the assay with A549, with CCRF-CEM, with DU-145, in the assay on EKVX and in the assay on HCC 2998 was > 10 µM (inactive) throughout. Further, the GI50 in the assay with HL-60, in the assay on KM12, in the assay on NCI-H460, in the assay on OVCAR-3, in the assay with OVCAR-5 and in the assay with OVCAR-8 was > 10 µM (inactive) in each case. Further, the GI50 in the assay with SF-539, with SNB-75, with SW-620 and in the assay with UACC-62 was > 10 µM (inactive) in each case.
For the compound `CCN(CC)CCN(C)c1ccc(CO)c2c1c(=O)c1ccccc1[s+]2[O-]` (stereo unspecified), the GI50 in the assay on A498 is 10.7 µM (inactive); with A549, 11.3 µM (inactive); in the assay with CCRF-CEM, 3.78 µM (inactive); in the assay on DU-145 it was 14.6 µM (inactive); in the assay on EKVX it was 5.96 µM (inactive); with HCC 2998 it was 1.43 µM (inactive). Besides, the GI50 in the assay on HL-60 was 16.8 µM (inactive); in the assay with KM12, 1.98 µM (inactive); in the assay with NCI-H460, 4.62 µM (inactive); in the assay on OVCAR-3, 1.95 µM (inactive); in the assay on OVCAR-5, 11.4 µM (inactive); in the assay on OVCAR-8, 1.8 µM (inactive). Besides, the GI50 in the assay with SF-539 was 1.82 µM (inactive); in the assay with SNB-75, 14.8 µM (inactive); in the assay with SW-620, 1.88 µM (inactive); with UACC-62, 7.06 µM (inactive).
As for `CCN(CC)C1CCC(C2c3cc4c(cc3OC(N3CCOCC3)C2C)OCO4)CC1` (stereo unspecified), the GI50 with A498 was 21 µM (inactive); in the assay with A549, 27.5 µM (inactive); in the assay with CCRF-CEM, 27.2 µM (inactive); with DU-145 it was 18.5 µM (inactive); with EKVX it was 22.8 µM (inactive); with HCC 2998, 10 µM (inactive). Further, the GI50 in the assay on HL-60 is 22.6 µM (inactive); in the assay with KM12, 16.8 µM (inactive); in the assay with NCI-H460, 16.3 µM (inactive); in the assay on OVCAR-3 it was 14.7 µM (inactive); in the assay with OVCAR-5, 36.4 µM (inactive); in the assay with OVCAR-8, 23.6 µM (inactive). Moreover, the GI50 with SF-539 is 22.3 µM (inactive); in the assay on SNB-75 it was 61.8 µM (inactive); in the assay on SW-620 it was 16.1 µM (inactive); in the assay with UACC-62 it was 16.7 µM (inactive).
As for `O=[N+]([O-])c1cccc2nc3ccccc3c(NCCCN3CCCCC3)c12`, the GI50 is < 0.0115 µM (active) in the assay on A498; < 0.01 µM (active) in the assay with A549; 0.024 µM (active) in the assay with CCRF-CEM; < 0.01 µM (active) in the assay with DU-145; < 0.01 µM (active) with EKVX; < 0.01 µM (active) with HCC 2998. Also, the GI50 with HL-60 is 0.0252 µM (active); in the assay with KM12, 0.014 µM (active); in the assay with NCI-H460, < 0.01 µM (active); in the assay on OVCAR-3, < 0.0126 µM (active); with OVCAR-5, 0.0208 µM (active); in the assay with OVCAR-8 it was 0.0132 µM (active). The GI50 in the assay with SF-539 was 0.0163 µM (active); in the assay on SNB-75, 0.0205 µM (active); in the assay on SW-620, < 0.01 µM (active); with UACC-62, 0.0151 µM (active).
Regarding `CC1=C[C@@H](C)C[C@]2(C)CC[C@H](O2)[C@]23CC[C@](C)(C[C@H](O2)[C@@H]2O[C@@](C)(CC2=O)[C@@H](O)[C@H]2CC[C@@]4(CCC[C@@H](O4)[C@H](C)C(=O)O[C@H]4C[C@H]([C@]5(O)OCC[C@H](C)[C@@H]5O)O[C@H]4C=C1)O2)O3`, the GI50 is 0.00147 µM (active) in the assay with A498; 0.0035 µM (active) with A549; 0.00188 µM (active) in the assay on CCRF-CEM; 0.0601 µM (active) with DU-145; 0.0113 µM (active) in the assay with EKVX; 0.075 µM (active) with HCC 2998. The GI50 in the assay on HL-60 was 0.0346 µM (active); in the assay on KM12 it was 0.0586 µM (active); in the assay with NCI-H460 it was 0.00429 µM (active); in the assay on OVCAR-3, 0.00397 µM (active); in the assay with OVCAR-5 it was 0.0186 µM (active); in the assay on SF-539 it was 0.00185 µM (active). Moreover, the results for the GI50 in the assay with SNB-75, in the assay on SW-620 and in the assay with UACC-62 were < 0.001 µM (active), 0.0684 µM (active) and 0.00461 µM (active), respectively.

The values are drawn from ChEMBL document CHEMBL1201862, “PubChem BioAssay data set” (2004).
